# Reference: the NIST ThermoML archive (doi:10.1021/je900193m)
# Assay: xn = mol fraction of the nth substance listed
# Conditions: 101 kPa, Liquid, holographic inferometry, x1 = 0
Structure (SMILES),binary diffusion coefficient (278.15 K) [m2/s],binary diffusion coefficient (281.15 K) [m2/s],binary diffusion coefficient (284.15 K) [m2/s],binary diffusion coefficient (287.15 K) [m2/s],binary diffusion coefficient (290.15 K) [m2/s],binary diffusion coefficient (293.15 K) [m2/s],binary diffusion coefficient (296.15 K) [m2/s],binary diffusion coefficient (299.15 K) [m2/s],binary diffusion coefficient (302.15 K) [m2/s],binary diffusion coefficient (305.15 K) [m2/s],binary diffusion coefficient (308.15 K) [m2/s],binary diffusion coefficient (311.15 K) [m2/s],binary diffusion coefficient (314.15 K) [m2/s],binary diffusion coefficient (317.15 K) [m2/s],binary diffusion coefficient (320.15 K) [m2/s],binary diffusion coefficient (323.15 K) [m2/s],binary diffusion coefficient (326.15 K) [m2/s],binary diffusion coefficient (329.15 K) [m2/s],binary diffusion coefficient (332.15 K) [m2/s],binary diffusion coefficient (335.15 K) [m2/s],further results
CCOC(=O)CCCCC(=O)OCC [diethyl hexanedioate] + CCCCCCC,1.93e-09,1.96e-09,1.99e-09,2.02e-09,2.06e-09,2.1e-09,2.15e-09,2.2e-09,2.25e-09,2.31e-09,2.37e-09,2.43e-09,2.49e-09,2.56e-09,2.62e-09,2.7e-09,2.78e-09,2.85e-09,2.92e-09,3.02e-09,binary diffusion coefficient (338.15 K): 3.11e-09 m2/s
CCOC(=O)OCC [diethyl carbonate] + CCCCCCC,3.93e-09,3.96e-09,3.99e-09,4.02e-09,4.08e-09,4.14e-09,4.19e-09,4.27e-09,4.32e-09,4.4e-09,4.47e-09,4.54e-09,4.62e-09,4.7e-09,4.8e-09,4.88e-09,4.97e-09,5.07e-09,5.15e-09,5.25e-09,binary diffusion coefficient (338.15 K): 5.35e-09 m2/s
COC(=O)OC [dimethyl carbonate] + CCCCCCC,4.93e-09,4.97e-09,5.01e-09,5.07e-09,5.13e-09,5.19e-09,5.25e-09,5.33e-09,5.39e-09,5.48e-09,5.55e-09,5.63e-09,5.71e-09,5.8e-09,5.9e-09,5.99e-09,6.09e-09,6.2e-09,6.29e-09,6.41e-09,binary diffusion coefficient (338.15 K): 6.52e-09 m2/s
